One may read the IC50 as the point on the concentration scale where inhibition reaches its midpoint.

In ChEMBL document CHEMBL4368865, “Synthesis, characterization and cytotoxic activity evaluation of ginsengdiol oxidation and nitrogen hybrid derivatives” (Medchemcomm, 2018) one finds IC50 data, which are given here for 25 compounds.

In one experiment the test system is U-87 MG. Description: Cytotoxicity against human U87 cells assessed as inhibition of cell proliferation after 48 hrs by MTT assay. The experiment is classed as functional, cell-based, U-87MG ATCC.
The subject of a further experiment is MCF7. The experiment in a line: cells. The experiment is classed as functional, cell-based. The note with it: Homo sapiens, MCF7, 48 h.
A short description of experiment [1]: Cytotoxicity against human 8901 cells assessed as inhibition of cell proliferation after 48 hrs by MTT assay. The experiment is classed as functional, cell-based.
Another experiment concerns A549. The experiment in a line: Cytotoxicity against human A549 cells assessed as inhibition of cell proliferation after 48 hrs by MTT assay. It counts as functional, cell-based. The note with it: A549, 48 h. For orientation: Tetrazolium assays rely on reduction of a dye to a coloured formazan, in cell work by metabolically active cells.
The subject of a further experiment is HeLa. The experiment in a line: Cytotoxicity against human HeLa cells assessed as inhibition of cell proliferation after 48 hrs by MTT assay. The experiment is classed as functional, cell-based.
A short description of experiment [2]: Cytotoxicity against human IOSE-144 cells assessed as inhibition of cell proliferation after 48 hrs by MTT assay. It counts as cell-based. Conditions: IOSE-144, 48 h.

Description for MCF7: Cytotoxicity against human MCF7 cells assessed as inhibition of cell proliferation after 48 hrs by MTT assay

As for `CC(C)(O)CCC[C@@](C)(O)[C@H]1CC[C@]2(C)[C@@H]1[C@H](O)C[C@@H]1[C@@](C)(CC(=O)O)[C@H](C(C)(C)C(=O)O)CC[C@]12C`, the concentration for half-maximal inhibition (IC50) (in the experiment on U-87 MG; in the experiment on MCF7; in experiment [1]; in the experiment with A549; with HeLa; in experiment [2]) was over 100 µM throughout.

`CC1(C)CCC[C@](C)([C@H]2CC[C@]3(C)[C@@H]2[C@H](O)C[C@@H]2[C@@]4(C)Cc5nccnc5C(C)(C)[C@@H]4CC[C@]23C)O1`: the half-inhibitory concentration (IC50) (in the experiment on U-87 MG; in the experiment with MCF7; in experiment [1]; in the experiment on A549; with HeLa; in experiment [2]) was over 100 µM throughout.

As to `CC1(C)CCC[C@](C)([C@H]2CC[C@]3(C)[C@@H]2[C@H](O)C[C@@H]2[C@@](C)(CC(=O)O)[C@H](C(C)(C)C=O)CC[C@]23C)O1`, the concentration for half-maximal inhibition (IC50) (in the experiment on U-87 MG; in the experiment with MCF7; in experiment [1]; with A549; in the experiment on HeLa; in experiment [2]) was over 100 µM throughout.

In the case of `CC1(C)CCC[C@](C)([C@H]2CC[C@]3(C)[C@@H]2[C@H](O)C[C@@H]2[C@@]4(C)Cc5cnc(N)nc5C(C)(C)[C@@H]4CC[C@]23C)O1`, the IC50 in the experiment with U-87 MG is 82.6 µM; with MCF7, 27.9 µM; in experiment [1] it was 45.7 µM; in the experiment with A549, 26.9 µM; with HeLa it was 69.4 µM; in experiment [2], over 100 µM.

`CC(C)(O)CCC[C@@](C)(O)[C@H]1CC[C@]2(C)[C@@H]1C(=O)C[C@@H]1[C@@]3(C)Cc4nccnc4C(C)(C)[C@@H]3CC[C@]12C`: the half-maximal inhibitory concentration (IC50) was over 100 µM with U-87 MG; 39.1 µM with MCF7; over 100 µM in experiment [1]; 19.7 µM with A549; over 100 µM in the experiment with HeLa; over 100 µM in experiment [2].

As for `CC(C)(O)CCC[C@@](C)(O)[C@H]1CC[C@]2(C)[C@@H]1C(=O)C[C@@H]1[C@@]3(C)CC[C@H](O)C(C)(C)[C@@H]3CC[C@]12C`, the half-inhibitory concentration (IC50) in the experiment on U-87 MG was over 100 µM; in the experiment with MCF7 it was over 100 µM; in experiment [1] it was 66.5 µM; with A549, 50.6 µM; with HeLa, over 100 µM; in experiment [2] it was over 100 µM.

`O=c1[nH]cc(F)c(=O)[nH]1` [FLUOROURACIL]: the half-inhibitory concentration (IC50) in the experiment on U-87 MG was 22 µM; in experiment [1], 33.3 µM; with HeLa, 28.2 µM; in experiment [2], 34.8 µM.

Take `COC(C)(C)CCC[C@@](C)(O)[C@H]1CC[C@]2(C)[C@@H]1[C@H](O)C[C@@H]1[C@@]3(C)CC[C@H](O)C(C)(C)[C@@H]3CC[C@]12C`: the IC50 with U-87 MG was 19.5 µM; with MCF7, 44.6 µM; in experiment [1], 38.5 µM; in the experiment with A549, 29.3 µM; in the experiment with HeLa it was 29.4 µM; in experiment [2], over 100 µM.

As to `CC1(C)CCC[C@](C)([C@H]2CC[C@]3(C)[C@@H]2[C@H](O)C[C@@H]2[C@@]4(C)Cc5cnoc5C(C)(C)[C@@H]4CC[C@]23C)O1`, the IC50 with U-87 MG is over 100 µM; in the experiment with MCF7 it was over 100 µM; in experiment [1], over 100 µM; in the experiment with A549 it was 67.3 µM; with HeLa, over 100 µM; in experiment [2], over 100 µM.

As for `COC(C)(C)CCC[C@@](C)(O)[C@H]1CC[C@]2(C)[C@@H]1[C@H](O)C[C@@H]1[C@@]3(C)CCC(=O)C(C)(C)[C@@H]3CC[C@]12C`, the concentration for half-maximal inhibition (IC50) with U-87 MG was over 100 µM; in the experiment with MCF7, 50.3 µM; in experiment [1] it was 78.6 µM; in the experiment with A549 it was 39.9 µM; in the experiment on HeLa, over 100 µM; in experiment [2] it was over 100 µM.

As to `CC1(C)CCC[C@](C)([C@H]2CC[C@]3(C)[C@@H]2[C@H](O)C[C@@H]2[C@@]4(C)Cc5c([nH]c6ccccc56)C(C)(C)[C@@H]4CC[C@]23C)O1`, the IC50 (in the experiment on U-87 MG; with MCF7; in experiment [1]; with A549; with HeLa; in experiment [2]) was over 100 µM each time.

With `CC1(C)CCC[C@](C)([C@H]2CC[C@]3(C)[C@@H]2[C@H](O)C[C@@H]2[C@@]4(C)CC(C=O)C(=O)C(C)(C)[C@@H]4CC[C@]23C)O1` (some centres not stated), the half-maximal inhibitory concentration (IC50) with U-87 MG was 30.6 µM; with MCF7, 28.3 µM; in experiment [1], 30.1 µM; in the experiment on A549 it was 18.5 µM; in the experiment on HeLa, 31.9 µM; in experiment [2] it was over 100 µM.

Regarding `CC1(C)CCC[C@](C)([C@H]2CC[C@]3(C)[C@@H]2[C@H](O)C[C@@H]2[C@@]4(C)Cc5nc6ccccc6nc5C(C)(C)[C@@H]4CC[C@]23C)O1`, the IC50 (with U-87 MG; with MCF7; in experiment [1]; in the experiment with A549; with HeLa; in experiment [2]) was over 100 µM in each case.

For the compound `CC1(C)CCC[C@](C)([C@H]2CC[C@]3(C)[C@@H]2[C@H](O)C[C@@H]2[C@@]4(C)CCC(=O)C(C)(C)[C@@H]4CC[C@]23C)O1`, the IC50 is 90 µM with U-87 MG; 78.1 µM with MCF7; over 100 µM in experiment [1]; over 100 µM in the experiment with A549; 66.4 µM in the experiment on HeLa; over 100 µM in experiment [2].

For `CC1(C)CCC[C@@](C)(O)[C@H]2CC[C@]3(C)[C@@H]2[C@@H](C[C@@H]2[C@@]4(C)CCC(=O)C(C)(C)[C@@H]4CC[C@]23C)O1`, the IC50 is 76.4 µM in the experiment on U-87 MG; 91.9 µM in the experiment with MCF7; over 100 µM in experiment [1]; 86.4 µM with A549; over 100 µM with HeLa; over 100 µM in experiment [2].

In the case of `COC(C)(C)CCC[C@@](C)(O)[C@H]1CC[C@]2(C)[C@@H]1C(=O)C[C@@H]1[C@@]3(C)CC[C@H](O)C(C)(C)[C@@H]3CC[C@]12C`, the IC50 in the experiment with U-87 MG is 32.7 µM; with MCF7, 44.9 µM; in experiment [1], 81.3 µM; with A549, 37.1 µM; with HeLa, 18 µM; in experiment [2] it was over 100 µM.

`CC1(C)CCC[C@](C)([C@H]2CC[C@]3(C)[C@@H]2[C@H](O)C[C@@H]2[C@@]4(C)CC(C#N)=C(O)C(C)(C)[C@@H]4CC[C@]23C)O1`: the concentration for half-maximal inhibition (IC50) was 41.6 µM in the experiment with U-87 MG; 29.7 µM in the experiment on MCF7; 25.7 µM in experiment [1]; 12.9 µM in the experiment on A549; 12.7 µM in the experiment with HeLa; over 100 µM in experiment [2].

With `CC(C)(O)CCC[C@@](C)(O)[C@H]1CC[C@]2(C)[C@@H]1[C@H](O)C[C@@H]1[C@@]3(C)C=C(O)C(=O)C(C)(C)[C@@H]3CC[C@]12C`, the IC50 is 45.4 µM in the experiment on U-87 MG; 46.2 µM in the experiment on MCF7; 87.8 µM in experiment [1]; 24.3 µM in the experiment with A549; 50.9 µM in the experiment on HeLa; over 100 µM in experiment [2].

For the compound `CC(C)(O)CCC[C@@](C)(O)[C@H]1CC[C@]2(C)[C@@H]1C(=O)C[C@@H]1[C@@]3(C)CCC(=O)C(C)(C)[C@@H]3CC[C@]12C`, the half-maximal inhibitory concentration (IC50) with U-87 MG was over 100 µM; with MCF7, 65.1 µM; in experiment [1], over 100 µM; in the experiment on A549, 90 µM; in the experiment on HeLa it was over 100 µM; in experiment [2], over 100 µM.

For `COC(C)(C)CCC[C@@](C)(O)[C@H]1CC[C@]2(C)[C@@H]1[C@H](O)C[C@@H]1[C@@](C)(CC(=O)O)[C@H](C(C)(C)C=O)CC[C@]12C`, the IC50 in the experiment on U-87 MG is over 100 µM; in the experiment on MCF7, over 100 µM; in experiment [1], over 100 µM; in the experiment on A549, 85 µM; with HeLa, over 100 µM; in experiment [2] it was over 100 µM.

As to `COC(C)(C)CCC[C@@](C)(O)[C@H]1CC[C@]2(C)[C@@H]1C(=O)C[C@@H]1[C@@]3(C)CCC(=O)C(C)(C)[C@@H]3CC[C@]12C`, the IC50 with U-87 MG was over 100 µM; in the experiment with MCF7, 98.5 µM; in experiment [1], over 100 µM; in the experiment with A549, over 100 µM; in the experiment with HeLa, over 100 µM; in experiment [2] it was over 100 µM.

With `CC1(C)CCC[C@](C)([C@H]2CC[C@]3(C)[C@@H]2[C@H](O)C[C@@H]2[C@@]4(C)CC[C@H](O)C(C)(C)[C@@H]4CC[C@]23C)O1` [PANAXADIOL], the IC50 in the experiment on U-87 MG was over 100 µM; with MCF7 it was 52.6 µM; in experiment [1], over 100 µM; with A549, 44.6 µM; in the experiment with HeLa it was over 100 µM; in experiment [2], over 100 µM.

As to `CC(C)(O)CCC[C@@](C)(O)[C@H]1CC[C@]2(C)[C@@H]1[C@H](O)C[C@@H]1[C@@]3(C)CCC(=O)C(C)(C)[C@@H]3CC[C@]12C`, the IC50 in the experiment with U-87 MG was over 100 µM; in the experiment with MCF7, 66.6 µM; in experiment [1], over 100 µM; in the experiment with A549, 25.7 µM; with HeLa, over 100 µM; in experiment [2], over 100 µM.

As to `CC1(C)CCC[C@](C)([C@H]2CC[C@]3(C)[C@@H]2[C@H](O)C[C@@H]2[C@@]4(C)CC/C(=N\O)C(C)(C)[C@@H]4CC[C@]23C)O1`, the 50% inhibitory concentration (IC50) (in the experiment on U-87 MG; with MCF7; in experiment [1]; with A549; in the experiment with HeLa; in experiment [2]) was over 100 µM throughout.

As for `CC(C)(O)CCC[C@@](C)(O)[C@H]1CC[C@]2(C)[C@@H]1[C@H](O)C[C@@H]1[C@@]3(C)CC[C@H](O)C(C)(C)[C@@H]3CC[C@]12C`, the IC50 with U-87 MG was 25.1 µM; in experiment [1], 46.5 µM; with A549, 27.9 µM; in the experiment with HeLa, 19.6 µM; in experiment [2] it was over 100 µM.
